From patent publication US20240327388A1, “QUINOLINAMINE COMPOUND, PREPARATION METHOD THEREFOR AND APPLICATION THEREOF IN PHARMACEUTICALS” (JIANGSU HENGRUI PHARMACEUTICALS CO., LTD., priority 2021, published 2024) come the findings set out here.

In data set [1] the test system is dextran sulfate sodium salt (DSS)-induced UC mice. Put plainly: Prophylactic and therapeutic effects on DSS-induced ulcerative colitis (UC) in mice. The settings on record: for efficacy on DSS-induced UC (conclusion in words): 50 mg/kg, body weight and colon length; for body weight decreasing rate / colon length, % of that of the normal control group: DSS-induced UC mice. The data set is classed as in vivo, female C57BL/6 mice. As to the method: In the experiment, female C57BL/6 mice from Vital River were selected to establish an ulcerative colitis (UC) model induced by dextran sulfate sodium salt (DSS), and the prophylactic and therapeutic effects of a positive compound ABX-464 (see compound 90 in WO2015001518A1) and compound 1 disclosed herein on the DSS-induced ulcerative colitis were evaluated.
Female C57BL/6 mice for experiments, purchased from Vital River Laboratory Animal Technology Co., Ltd. (production license number: SCXK (Zhejiang) 2019-0001, animal certification number: 20210401Abzz0619000795), weighing 20-22 g at the time of purchase, were bred at 5 mice/cage in an independent SPF space (in 12/12-hour light/dark cycle, at a constant temperature of 23±1° C. and a humidity of 50%-60%) and given ad libitum access to food and water. After purchase, the animals were acclimatized for at least 1 week, and then the experiment began.
The mice were randomly divided by body weight into the following 5 groups: normal control group (Naïve group), model group (DSS group), ABX-464 (50 mg/kg, p.o., qd) group, ABX-464 (50 mg/kg, p.o., bid) group, and compound 1 disclosed herein (50 mg/kg, p.o., bid) group. After acclimatization, the mice were subjected to 2.5% DSS feeding from day 0. After 7 days of DSS feeding, the mice were fed normal water until day 10. The corresponding solvents and drugs were administered intragastrically for 10 consecutive days from day 0 to day 10, and the mice were observed daily for changes in body weight from day 0 to day 10. On day 10, the mice were weighed, and the colon length was measured.
The experimental data are expressed as mean±standard error (SEM). Statistical comparison was performed using Excel software t-test. The data of the model group and the data of the normal control group were analyzed and compared. #P<0.05 indicates a significant difference between the model group and the normal control group, ##P<0.01 indicates a highly significant difference between the model group and the normal control group, and ###P<0.001 indicates a very highly significant difference between the model group and the normal control group. *P<0.05 indicates a significant difference between the administration group and the model group, **P<0.01 indicates a highly significant difference between the administration group and the model group, and ***P<0.001 indicates a very highly significant difference between the administration group and the model group.

A further data set concerns miR-124. Kind of data set: Up-regulation of miR-124 in CD3/CD28 antibody-activated T cells (SYBR green quantitative PCR). The data set is classed as cell-based. The settings on record: T-cell, 72 h; activated human T cells, 1 μM compound, 3 days, relative to DMSO, U6 internal reference. On the procedure:
The effect of the compound on miR-124 expression levels was detected in CD3/CD28 antibody-activated T cells. After the activated T cells were treated with the compound, the total cellular RNA was extracted, the cDNA obtained from reverse transcription was used as a template, and quantification was performed by an SYBR green fluorescence quantitative PCR method using a specific miR-124 primer.
Isolation of T cells: Purchased human peripheral blood mononuclear cells (PBMCs) were counted, centrifuged, and washed once with a separation buffer (PBS, pH 7.4, containing 0.5% BSA and 2 mM EDTA), and the supernatant was discarded. The components were added in an amount of 40 μL of a buffer and 10 μL of pan T Cell Biotin-Antibody Cocktail per 1×10^7 cells, and the pellet was resuspended. The resulting suspension was mixed and incubated in a refrigerator at 4° C. for 5 min. After the incubation was completed, the components were added in an amount of 30 μL of a buffer and 20 μL of Pan T Cell MicroBeads Cocktail per 1×10^7 cells, and the resulting suspension was mixed and incubated in a refrigerator at 4° C. for 10 min. The separation column (LS column) was rinsed with 3 mL of a cell separation buffer in advance, loaded with the above cell suspension, and then repeatedly washed 3 times with 1 mL of the cell separation buffer. The effluent cell fluid was collected in a 15 mL centrifuge tube, thus giving the enriched T cells. The cells were counted and added at a density of 1×10^6 cells/mL to an RPMI1640 medium (complete medium) containing 10% FBS and 40) U/mL IL-2, and the resulting mixture was kept on ice for later use.
Activation of T cells: The corresponding Dynabead Human T-Activator CD3/CD28 for T Cell Expansion and Activation were added to a 1.5 mL centrifuge tube in an amount of 25 μL of the activated magnetic beads per 1×10^6 cells, which should be shaken on a shaker for about 30 s before aspiration. In the centrifuge tube, at a volume ratio of greater than 1:1, the activated magnetic beads were washed 3 times with a medium, and all the washing liquid was removed after the last washing. A complete medium with a volume equal to the starting volume was added to resuspend the activated magnetic beads. The washed activated magnetic beads were added to the cell resuspension, and the resulting mixture was well mixed. The cells were added to a six-well plate at 3 mL/well and incubated in a cell incubator at 37° C. with 5% CO2 for 2 days.
Compound treatment: A 20 mM compound stock solution was diluted to 200 μM with DMSO, and then diluted 4-fold to 50 μM (50)×) with a complete medium. The resulting mixture was well mixed for later use. 4-fold diluted DMSO (25% DMSO) was added to negative control wells. T cells were activated for two days and pipetted uniformly. The 1.5 mL centrifuge tube was mounted on a magnetic rack, and the activated magnetic beads were removed. The cell suspension was collected, and the cells were counted and then centrifuged at 300×g for 10 min to discard the supernatant. The cells were then resuspended to 1.02×10^6 cells/mL, and 980 μL of the cell suspension and 20 μL of the 50× compound were added to each 24-well plate, with the final concentration of the compound being 1 μM. The cells were placed in a cell incubator at 37° C. with 5% CO2 for another 3 days.
RNA extraction: T cells were collected by centrifugation at 1500 rpm for 3 min, washed once with PBS, and centrifuged again to discard the supernatant. The total cellular RNA was extracted using a microRNA extraction kit according to the package insert. 700 μL of a Trizol cell lysis buffer was added to the cell pellet, and the resulting mixture was pipetted uniformly and left at room temperature for 5 min. 140 μL of chloroform was added, and the resulting mixture was well mixed with shaking and left to stand at room temperature for 3 min. The chloroform-cell lysis buffer mixture was centrifuged at 12000×g and 4° C. for 15 min. […]

A short description of data set [2]: Pharmacokinetic study in rats (intragastric administration and intravenous injection, LC/MS/MS). It is filed as in vivo, SD rats. The settings on record: rat; for Vd/F / AUC / CL/F / half-life / Cmax / MRT / Vd / clearance: both sexes, SD, plasma; for Vd/F: read-out: Apparent volume of distribution Vz/F; for AUC: read-out: Area under curve AUC; for CL/F: read-out: Clearance CL/F; for half-life: read-out: Half-life t½ (converted); for Cmax: read-out: Plasma concentration Cmax; for MRT: read-out: Residence time MRT; for Vd: read-out: Apparent volume of distribution Vz; for clearance: read-out: Clearance CL. On the procedure:
With rats as test animals, the plasma concentration of the compound of Example 2 and a comparative compound A (see compound (1) of Example 3 in WO2016135052A1) were determined by LC/MS/MS at different time points after intragastric administration and intravenous injection to the rats. The pharmacokinetic behavior in rats of the compound disclosed herein was studied and its pharmacokinetic profile was evaluated.
16 healthy adult SD rats (half male and half female, purchased from Vital River Laboratory Animal Technology Co., Ltd.) were evenly divided into 4 groups.
A certain amount of the compound was weighed out, and 5% of DMSO, 5% of Tween 80, and 90% of normal saline were added to give a colorless and clear solution.
Intragastric administration group: SD rats were fasted overnight, and then the compound was administered intragastrically to the rats at a dose of 2 mg/kg and a volume of 10.0 mL/kg.
Intravenous administration group: SD rats were fasted overnight, and then the compound was administered to the rats by intravenous injection at a dose of 1 mg/kg and a volume of 5.0 mL/kg.
Intragastric administration group: The compound of Example 2 and the comparative compound A were administered intragastrically to the rats, and 0.1 mL of blood was collected from the orbit before administration and 0.25 h, 0.5 h, 1.0 h, 2.0 h, 4.0 h, 6.0 h, 8.0 h, 11.0 h and 24.0 h after administration. The blood was placed in an EDTA-K2 anticoagulation tube and centrifuged at 10000 rpm for 1 min at 4° C. The plasma was separated within 1 h and stored at −20° C. before analysis. The process from blood collection to centrifugation was performed in an ice bath. Two hours after administration, feeding was resumed.
Intravenous administration group: The rats were injected intravenously with the compound of Example 2 and the comparative compound A, and the blood was collected before administration and 5 min, 15 min, 0.5 h, 1.0 h, 2.0 h, 4.0 h, 8.0 h, 11.0 h and 24.0 h after administration and treated in the same way as the blood of the intragastric administration group.
Determination of plasma concentrations in rats after intragastric administration and intravenous injection of the test compounds at different concentrations: 20 μL of rat plasma at each time point after administration was mixed with 50 μL of an internal standard solution (camptothecin, 100 ng/mL) and 200 μL of acetonitrile, and the mixture was vortexed for 5 min and centrifuged for 10 min at 3700-4000 rpm. 1.0-2.0 μL of supernatant of the plasma sample was taken for LC/MS/MS analysis.

The mark [3] stands for this setting: po, intragastric administration, 2 mg/kg.

Read-outs that look alike come from different tables or passages of the source.

Take `FC(F)(F)Oc1ccc(Nc2ccc3cccc(Cl)c3n2)cc1` [ABX-464]: the “efficacy on DSS-induced UC (conclusion in words)” value in data set [1] was “certain prophylactic and therapeutic effects on the DSS-induced UC”. Moreover, in data set [1] (day 10, 50 mg/kg p.o. bid), the “body weight decreasing rate” value was determined as 10.3% and the “colon length, % of that of the normal control group” value (“colon length, %” below) is recorded as 89.3%. Moreover, in data set [1] (day 10, 50 mg/kg p.o. qd), the “body weight decreasing rate” value worked out at 14.1% and the “colon length, %” value stood at 85.5%.
`O=C(O)[C@H]1O[C@@H](N(c2ccc3c(c2)OC(F)(F)O3)c2ccc3cccc(Cl)c3n2)[C@H](O)[C@@H](O)[C@@H]1O` [Compound 2, (2S,3S,4S,5R,6R)-6-((8-Chloroquinolin-2-yl)(2,2-difluorobenzo[d][1,3]dioxol-5-yl)amino)-3,4,5-trihydroxytetrahydro-2H-pyran-2-carboxylic acid] registered a fold induction at 1 µM with miR-124 of 1.2. Also, in data set [2] (setting [3]), the Vd/F was determined as 6.18 L/kg, the AUC was 1220 ng·h/mL, the CL/F stood at 28.7 mL/min/kg and the half-life was 2.47 h. Moreover, in data set [2] (setting [3]), the Cmax was found to be 242 ng/mL and the MRT was 4.32 h. Also, in data set [2] (intravenous injection, 1 mg/kg), the Vd stood at 0.178 L/kg, the AUC was determined as 23000 ng·h/mL, the clearance stood at 0.781 mL/min/kg and the half-life is 2.85 h. In addition, the MRT in data set [2] (intravenous injection, 1 mg/kg) turned out to be 2.1 h. The “pharmacokinetic profile (conclusion in words)” value in data set [2] (compared to comparative compound A) was “good absorption profile and significant pharmacokinetic superiority as compared to the comparative compound A”.
In the data set on miR-124, `FC1(F)Oc2ccc(Nc3ccc4cccc(Cl)c4n3)cc2O1` [Compound 1, 8-Chloro-N-(2,2-difluorobenzo[d][1,3]dioxol-5-yl)quinolin-2-amine] had a fold induction at 1 µM of 3.9. The “efficacy on DSS-induced UC (conclusion in words)” value in data set [1] was “better efficacy in terms of body weight and colon length than the positive drug ABX-464”. Moreover, in data set [1] (day 10, 50 mg/kg p.o. bid), the “body weight decreasing rate” value was found to be 0.4% and the “colon length, %” value amounted to 91.9%.
As to `O=C(O)[C@H]1O[C@@H](N(c2ccc(OC(F)(F)F)cc2)c2ccc3cccc(Cl)c3n2)[C@H](O)[C@@H](O)[C@@H]1O` [A, reference compound], in data set [2] (setting [3]), the Vd/F is 21.4 L/kg, the area under the curve (AUC) is 311 ng·h/mL, the CL/F is 95.7 mL/min/kg and the half-life is 2.57 h. Besides, in data set [2] (setting [3]), the Cmax turned out to be 105 ng/mL and the mean residence time MRT was determined as 3.76 h. Also, in data set [2] (intravenous injection, 1 mg/kg), the Vd worked out at 0.151 L/kg, the AUC is 11900 ng·h/mL, the clearance was 1.45 mL/min/kg and the half-life was 1.24 h. For the same compound, the MRT in data set [2] (intravenous injection, 1 mg/kg) stood at 1.17 h.
